Data set [1] can be described thus: Metabolic stability in mouse liver microsome assessed as parent compound remaining measured at 60 mins. Format: ADME. The conditions noted are these: liver microsomes, read-out: Stability.
A short description of data set [2]: Solubility of the compound in PBS buffer. Format: physicochemical.
Data set [3] can be described thus: Inhibition of AR-V7 expression in human 22Rv1 cells. Format: functional, cell-based, CWR22R.
Data set [4] can be described thus: Metabolic stability in human liver microsome assessed as parent compound remaining measured at 10 mins. Format: ADME. The conditions noted are these: liver microsomes, read-out: Stability.
Data set [5] is described as follows: Metabolic stability in human liver microsome assessed as parent compound remaining measured at 60 mins. As to conditions: liver microsomes, read-out: Stability. Format: ADME.
Data set [6] in a line: Metabolic stability in mouse liver microsome assessed as parent compound remaining measured at 10 mins. Format: ADME. The conditions noted are these: liver microsomes, read-out: Stability. A general note: Microsomes from liver hold many membrane-bound enzymes, among them those of drug oxidation.
Data set [7] can be described thus: Partition coefficient, logD of the compound. Format: physicochemical. The conditions noted are these: octanol/water.
Data set [8] deals with PNT2. The data set can be described thus: Cytotoxicity against human PNT2 cells assessed as reduction in cell viability upto 200 nM by MTS assay. As to conditions: pnt2, 0.2 µM. Format: toxicity, cell-based.
A short description of data set [9]: Apparent permeability of the compound by PAMPA assay. Format: ADME. (PAMPA measures passive passage across an artificial lipid membrane.)

Values after ≈ are worked out from the molar mass of the structure shown. Where only a bound is given, the exact number is not on record here.

With `CO[C@]1(C)C[C@@]2(CO2)[C@H](O)[C@@H](/C=C/C(C)=C/C[C@@H]2O[C@H](C)[C@H](NC(=O)/C=C\[C@H](C)OC(C)=O)C[C@@H]2C)O1`, the remaining at 1 h in data set [1] worked out at 0%; in data set [5], 0.5%. In data set [2], this molecule had a solubility of at least 95 µM. Also, the half-maximal inhibitory concentration (IC50) in data set [3] was determined as 0.6 nM. For the same molecule, the remaining at 10 min in data set [4] was found to be 32%; in data set [6], 2.5%. For the same molecule, the logD in [7] was determined as 3.8.

For `CC(=O)O[C@@H](C)/C=C\C(=O)N[C@@H]1C[C@H](C)[C@H](C/C=C(C)/C=C/[C@H]2OCC[C@@]3(CO3)[C@@H]2O)O[C@@H]1C`, the remaining at 1 h in data set [1] came to 0.1%; in data set [5] it was 0%. In [2], this molecule gave a solubility of 95 µM (≈ 45.4 µg/mL). Further, the remaining at 10 min in data set [4] stood at 1.7%; in [6] it was 0.3%. Moreover, the logD in [7] stood at 3.4.

On to `CC(=O)O[C@@H](C)/C=C(/C)C(=O)N[C@@H]1C[C@H](C)[C@H](C/C=C(C)/C=C/[C@H]2OCC[C@@]3(CO3)[C@@H]2O)O[C@@H]1C`, for which the remaining at 1 h in data set [1] and in data set [5] was 0% in each case. Also, the solubility in data set [2] is at least 95 µM. For the same molecule, the Activity entry in data set [8] is “Non-Toxic”. Further, the Papp in [9] came out at 18.5 ×10⁻⁶ cm/s. The values for the remaining at 10 min in [4] and in data set [6] were 1% and 0%, respectively. In addition, the log distribution coefficient (logD) in [7] amounted to 3.6.

In the case of `CC(=O)O[C@@H](C)/C=C/C(=O)N[C@@H]1C[C@H](C)[C@H](C/C=C(C)/C=C/[C@H]2OCC[C@@]3(CO3)[C@@H]2O)O[C@@H]1C`, the remaining at 1 h in data set [1] and in data set [5] was 0% each time. The same molecule came in with a solubility in [2] of 94.7 µM (≈ 45.2 µg/mL). The Papp in data set [9] came to 11.3 ×10⁻⁶ cm/s. The remaining at 10 min in [4] worked out at 0%; in data set [6], 27%. Further, the logD in data set [7] amounted to 3.2.

`CC(=O)O[C@@H](C)CCC(=O)N[C@@H]1C[C@H](C)[C@H](C/C=C(C)/C=C/[C@H]2OCC[C@@]3(CO3)[C@@H]2O)O[C@@H]1C`: the remaining at 1 h in data set [1] and in data set [5] was 0% in each case. The solubility in data set [2] was at least 95 µM. Moreover, the Activity result in data set [8] is recorded as “Non-Toxic”. Besides, in data set [9], the Papp stood at 8.5 ×10⁻⁶ cm/s. Besides, the results for the remaining at 10 min in data set [4] and in [6] were 6% and 5%, respectively. In data set [7], this molecule returned a logD of 3.1.

Turning to `CC(C)NCC(O)COc1cccc2ccccc12` (configuration not stated) [PROPRANOLOL], in data set [9], the Papp was 3.5 ×10⁻⁶ cm/s.

One may read the solubility as the dissolved amount per volume that the medium holds. A higher solubility goes with much dissolved substance. In general, IC50 refers to the concentration at which inhibition is half-maximal. As a reminder, the logD is lipophilicity at a set pH, counting ionised and neutral species. The term Papp denotes a coefficient for how fast a substance crosses the barrier.

(Values after ChEMBL document CHEMBL5321242, “Design and synthesis of 4-acetoxypentanamide derivatives of spliceostatin A and their biological evaluation towards prostate cancer treatment” (Bioorg Med Chem Lett, 2023).)
